The term IC50 denotes the concentration that gives 50% inhibition.

Molecules are shown by their SMILES.

This assay deals with hDGAT2 (Homo sapiens (Human), UniProt Q96PD7). Description: DGAT2 Enzymatic Activity Assay. The class given is biochemical. The conditions noted are these: hDGAT2 Sf-9 membrane prep; 25 μM diolein, 10 μM oleoyl-CoA; triolein product by LC/MS/MS; read-out: IC50 values for inhibition of DGAT2. In outline: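 Membranes from Sf-9 cells expressing untagged hDGAT2 (10 ng/μL) incubated at room temperature with 25 μM diolein and 10 μM oleoyl-CoA in 100 mM Tris pH 7.0, 20 mM MgCl2, 5% ethanol. Triolein product quantified by LC/MS/MS against spiked internal standard; IC50 from 4-parameter sigmoidal fit.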
Chain of hDGAT2 (Q96PD7 whole entry): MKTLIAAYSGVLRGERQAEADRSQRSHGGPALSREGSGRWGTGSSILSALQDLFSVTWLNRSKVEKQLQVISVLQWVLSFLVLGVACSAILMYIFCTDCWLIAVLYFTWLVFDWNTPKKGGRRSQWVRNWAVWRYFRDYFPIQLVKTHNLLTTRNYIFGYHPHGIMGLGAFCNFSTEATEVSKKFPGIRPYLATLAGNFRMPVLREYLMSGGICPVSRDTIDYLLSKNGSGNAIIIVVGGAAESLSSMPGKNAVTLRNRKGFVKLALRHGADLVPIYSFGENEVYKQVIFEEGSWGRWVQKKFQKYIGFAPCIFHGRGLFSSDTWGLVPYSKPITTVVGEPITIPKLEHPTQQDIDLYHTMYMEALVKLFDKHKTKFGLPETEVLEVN
As for `CCOC(=O)CCCNC(=O)N1CCc2c(-c3cccc(OC)c3)ccc(CNC(=O)[C@@H]3C[C@H]3c3ccccc3)c2C1` (relative stereo) [Example 59, ethyl 4-(5-(3-methoxyphenyl)-8-(((trans)-2-phenylcyclopropanecarboxamido)methyl)-1,2,3,4-tetrahydroisoquinoline-2-carboxamido)butanoate], the IC50 worked out at 0.227 µM.

For `COc1cccc(-c2ccc(CNC(=O)[C@@H]3C[C@H]3c3ccccc3)c3c2CCN(C(=O)NC(C)(C)CC(C)(C)C)C3)c1` (relative stereo) [Example 61, 5-(3-methoxyphenyl)-8-(((trans)-2-phenylcyclopropanecarboxamido)methyl)-N-(2,4,4-trimethylpentan-2-yl)-3,4-dihydroisoquinoline-2(1H)-carboxamide], the IC50 is 0.499 µM.

Turning to `COc1cccc(-c2ccc(CNC(=O)[C@@H]3C[C@H]3c3ccccc3)c3c2CCN(C(=O)N2CCOCC2)C3)c1` (relative stereo) [Example 62, (trans)-N-((5-(3-methoxyphenyl)-2-(morpholine-4-carbonyl)-1,2,3,4-tetrahydroisoquinolin-8-yl)methyl)-2-phenylcyclopropanecarboxamide], the IC50 worked out at 0.818 µM.

As to `COc1cccc(-c2ccc(CNC(=O)[C@@H]3C[C@H]3c3ccccc3)c3c2CCN(C(=O)NCCCC(=O)O)C3)c1` (relative stereo) [Example 64, 4-(5-(3-methoxyphenyl)-8-(((trans)-2-phenylcyclopropanecarboxamido)methyl)-1,2,3,4-tetrahydroisoquinoline-2-carboxamido)butanoic acid], the IC50 amounted to 4.28 µM.

As for `CCCNC(=O)N1CCc2c(-c3cccc(C(F)(F)F)c3)ccc(CNC(=O)[C@@H]3C[C@H]3c3nc(C)no3)c2C1` (relative stereo) [Example 66, 8-(((trans)-2-(3-methyl-1,2,4-oxadiazol-5-yl)cyclopropanecarboxamido)methyl)-N-propyl-5-(3-(trifluoromethyl)phenyl)-3,4-dihydroisoquinoline-2(1H)-carboxamide], the IC50 worked out at 0.0115 µM.

Consider `Cc1noc([C@@H]2C[C@H]2C(=O)NCc2ccc(-c3cccc(OC(F)(F)F)c3)c3c2CN(C(=O)NC2(C)COC2)CC3)n1` (relative stereo) [Example 67, 8-(((trans)-2-(3-methyl-1,2,4-oxadiazol-5-yl)cyclopropanecarboxamido)methyl)-N-(3-methyloxetan-3-yl)-5-(3-(trifluoromethoxy)phenyl)-3,4-dihydroisoquinoline-2(1H)-carboxamide], for which the half-inhibitory concentration (IC50) worked out at 0.0136 µM.

Consider `COc1cccc(-c2ccc(CNC(=O)[C@@H]3C[C@H]3c3ccccc3)c3c2CCN(C(=O)NC2(C)COC2)C3)c1` (relative stereo) [Example 68, 5-(3-methoxyphenyl)-N-(3-methyloxetan-3-yl)-8-(((trans)-2-phenylcyclopropanecarboxamido)methyl)-3,4-dihydroisoquinoline-2(1H)-carboxamide], for which the IC50 worked out at 0.0138 µM.

Turning to `Cc1noc([C@@H]2C[C@H]2C(=O)NCc2ccc(-c3cccc(C(F)(F)F)c3)c3c2CN(C(=O)NC2(C)COC2)CC3)n1` (relative stereo) [Example 69, 8-(((trans)-2-(3-methyl-1,2,4-oxadiazol-5-yl)cyclopropanecarboxamido)methyl)-N-(3-methyloxetan-3-yl)-5-(3-(trifluoromethyl)phenyl)-3,4-dihydroisoquinoline-2(1H)-carboxamide], the IC50 is 0.0196 µM.

As for `CCCNC(=O)N1CCc2c(-c3cccc(OC)c3)ccc(CNC(=O)[C@@H]3C[C@H]3c3ccccc3)c2C1` (relative stereo) [Example 70], the 50% inhibitory concentration (IC50) stood at 0.0204 µM.

Take `Cc1noc([C@@H]2C[C@H]2C(=O)NCc2ccc(-c3cccc(OC(F)(F)F)c3)c3c2CN(C(=O)NC2COC2)CC3)n1` (relative stereo) [Example 73, 8-(((trans)-2-(3-methyl-1,2,4-oxadiazol-5-yl)cyclopropanecarboxamido)methyl)-N-(oxetan-3-yl)-5-(3-(trifluoromethoxy)phenyl)-3,4-dihydroisoquinoline-2(1H)-carboxamide]: the IC50 was determined as 0.052 µM.

With `COc1cccc(-c2ccc(CNC(=O)[C@@H]3C[C@H]3c3ccccc3)c3c2CCN(C(=O)NC2COC2)C3)c1` (relative stereo) [Example 74, 5-(3-methoxyphenyl)-N-(oxetan-3-yl)-8-(((trans)-2-phenylcyclopropanecarboxamido)methyl)-3,4-dihydroisoquinoline-2(1H)-carboxamide], the IC50 was determined as 0.0898 µM.

Turning to `CCC(C)CNC(=O)N1CCc2c(-c3cccc(OC)c3)ccc(CNC(=O)[C@@H]3C[C@H]3c3ccccc3)c2C1` (relative stereo) [Example 75, 5-(3-methoxyphenyl)-N-(2-methylbutyl)-8-(((trans)-2-phenylcyclopropanecarboxamido)methyl)-3,4-dihydroisoquinoline-2(1H)-carboxamide], the IC50 came to 0.233 µM.

On to `COc1cccc(-c2ccc(CNC(=O)[C@H]3C[C@@H]3C(=O)O)c3c2CCN(C(=O)NC(C)(C)C)C3)c1` (relative stereo) [Example 84, (trans)-2-(((2-(tert-butylcarbamoyl)-5-(3-methoxyphenyl)-1,2,3,4-tetrahydroisoquinolin-8-yl)methyl)carbamoyl)cyclopropanecarboxylic acid], for which the IC50 was 1.34 µM.

Regarding `Cc1noc([C@@H]2C[C@H]2C(=O)NCc2ccc(-c3cccc(OC(F)(F)F)c3)c3c2CN(CC(=O)N2CCOCC2(C)C)CC3)n1` (relative stereo) [Example 91, (trans)-N-((2-(2-(3,3-dimethylmorpholino)-2-oxoethyl)-5-(3-(trifluoromethoxy)phenyl)-1,2,3,4-tetrahydroisoquinolin-8-yl)methyl)-2-(3-methyl-1,2,4-oxadiazol-5-yl)cyclopropanecarboxamide], the IC50 turned out to be 4.3 µM.

On to `COc1cccc(-c2ccc(CNC(=O)[C@H]3C[C@@H]3c3ccccc3)c3c2CCN(Cc2cc(F)cc(F)c2)C3)c1` (relative stereo) [Example 92, (trans)-N-((2-(3,5-difluorobenzyl)-5-(3 methoxyphenyl)-1,2,3,4-tetrahydroisoquinolin-8-yl)methyl)-2-phenylcyclopropanecarboxamide], for which the IC50 is 1.15 µM.

Regarding `Cc1noc([C@@H]2C[C@H]2C(=O)NCc2ccc(-c3cccc(OC(F)(F)F)c3)c3c2CN(Cc2noc(C4CC4)n2)CC3)n1` (relative stereo) [Example 101, (trans)-N-((2-((5-cyclopropyl-1,2,4-oxadiazol-3-yl)methyl)-5-(3-(trifluoromethoxy)phenyl)-1,2,3,4-tetrahydroisoquinolin-8-yl)methyl)-2-(3-methyl-1,2,4-oxadiazol-5-yl)cyclopropanecarboxamide], the IC50 worked out at 4.5 µM.

For `Cc1noc([C@@H]2C[C@H]2C(=O)NCc2ccc(-c3cccc(OC(F)(F)F)c3)c3c2CN(CC(=O)N2COCC2(C)C)CC3)n1` (relative stereo) [Example 103, (trans)-N-((2-(2-(4,4-dimethyloxazolidin-3-yl)-2-oxoethyl)-5-(3-(trifluoromethoxy)phenyl)-1,2,3,4-tetrahydroisoquinolin-8-yl)methyl)-2-(3-methyl-1,2,4-oxadiazol-5-yl)cyclopropanecarboxamide], the IC50 was found to be 1.76 µM.
